{"source": "paper PMC11876601", "about": "(Molecular Systems Biology, 2025)", "tested_on": "AsPC-1 cells", "experiment": "Cell proliferation assay, chemodrug + ATR inhibitor (Incucyte confluence, 72 h);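 for all read-outs here: underlying read-out for every value is AsPC-1 confluence after 72 h incubation at 37 °C and 5% CO2, divided by that well's starting confluence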", "conditions": "for Curve bottom / Curve slope / Curve top / EC50 / pEC50: AsPC-1, single replicates R1-R3; for Response / Ratio: replicates R1-R3; for Ratio: Response / Response vehicle (mean)", "key": {"[1]": {"conditions": "Drug 0 nM + ATRi 3 nM (ATRi alone, GEM+ATRi_dose1 series)"}, "[2]": {"conditions": "Drug 0 nM + ATRi 10 nM (ATRi alone, GEM+ATRi_dose2 series)"}, "[3]": {"conditions": "Drug 0 nM + ATRi 30 nM (ATRi alone, GEM+ATRi_dose3 series)"}, "[4]": {"conditions": "Drug 1 nM + ATRi 3 nM (GEM+ATRi_dose1)"}, "[5]": {"conditions": "Drug 1 nM + ATRi 10 nM (GEM+ATRi_dose2)"}, "[6]": {"conditions": "Drug 1 nM + ATRi 30 nM (GEM+ATRi_dose3)"}, "[7]": {"conditions": "Drug 1 nM alone, ATRi 0 nM (experiment 'GEM')"}, "[8]": {"conditions": "Drug 3 nM + ATRi 3 nM (GEM+ATRi_dose1)"}, "[9]": {"conditions": "Drug 3 nM + ATRi 10 nM (GEM+ATRi_dose2)"}, "[10]": {"conditions": "Drug 3 nM + ATRi 30 nM (GEM+ATRi_dose3)"}, "[11]": {"conditions": "Drug 3 nM alone, ATRi 0 nM (experiment 'GEM')"}, "[12]": {"conditions": "Drug 10 nM + ATRi 3 nM (GEM+ATRi_dose1)"}, "[13]": {"conditions": "Drug 10 nM + ATRi 10 nM (GEM+ATRi_dose2)"}, "[14]": {"conditions": "Drug 10 nM + ATRi 30 nM (GEM+ATRi_dose3)"}}, "note": "Several values for one entry are separate records, joined by “and”; a condition that tells them apart may be missing. Identical values can stand only once.", "protocol": "Cells were seeded at 5000 cells/well into 96-well flat bottom plates (Eppendorf) and allowed to attach overnight. […] Cells were incubated for 72 h at 37 °C and 5% CO2. Cell confluence readouts at 72 h were either normalized to their initial confluence using the Incucyte software (AsPC-1) or used without prior normalization (all others). […] Each experiment was performed in triplicates, the data was plotted as mean ± standard deviation (s.d.)."}
{"smiles": "N.N.[Cl][Pt][Cl]", "note": "[Cisplatin]", "values": [{"measurement": "Curve bottom", "setting": "Experiment GEM (no ATRi)", "value": "1.04 and 1.01 and 1.00"}, {"measurement": "Curve slope", "setting": "Experiment GEM (no ATRi)", "value": "1.30 and 2.18 and 1.82"}, {"measurement": "Curve top", "setting": "Experiment GEM (no ATRi)", "value": "0.20 and 0.35 and 0.27"}, {"measurement": "EC50", "setting": "Experiment GEM (no ATRi)", "value": "0.513 µM and 0.218 µM and 0.302 µM"}, {"measurement": "pEC50", "setting": "Experiment GEM (no ATRi)", "value": "6.29 and 6.66 and 6.52"}, {"measurement": "Curve bottom", "setting": "Experiment GEM+ATRi_dose1", "value": "1.05 and 1.02 and 1.03"}, {"measurement": "Curve slope", "setting": "Experiment GEM+ATRi_dose1", "value": "1.41 and 1.64 and 1.76"}, {"measurement": "Curve top", "setting": "Experiment GEM+ATRi_dose1", "value": "0.25 and 0.33 and 0.27"}, {"measurement": "EC50", "setting": "Experiment GEM+ATRi_dose1", "value": "0.172 µM and 0.118 µM and 0.151 µM"}, {"measurement": "pEC50", "setting": "Experiment GEM+ATRi_dose1", "value": "6.76 and 6.93 and 6.82"}, {"measurement": "Curve bottom", "setting": "Experiment GEM+ATRi_dose2", "value": "1.03 and 1.00 and 1.02"}, {"measurement": "Curve slope", "setting": "Experiment GEM+ATRi_dose2", "value": "1.60 and 1.79 and 1.21"}, {"measurement": "Curve top", "setting": "Experiment GEM+ATRi_dose2", "value": "0.28 and 0.31 and 0.26"}, {"measurement": "EC50", "setting": "Experiment GEM+ATRi_dose2", "value": "0.0364 µM and 0.0349 µM and 0.0371 µM"}, {"measurement": "pEC50", "setting": "Experiment GEM+ATRi_dose2", "value": "7.44 and 7.46 and 7.43"}, {"measurement": "Curve bottom", "setting": "Experiment GEM+ATRi_dose3", "value": "0.90 and 0.95 and 0.88"}, {"measurement": "Curve slope", "setting": "Experiment GEM+ATRi_dose3", "value": "0.65 and 0.81 and 0.69"}, {"measurement": "Curve top", "setting": "Experiment GEM+ATRi_dose3", "value": "0.22 and 0.29 and 0.23"}, {"measurement": "EC50", "setting": "Experiment GEM+ATRi_dose3", "value": "0.00662 µM and 0.00498 µM and 0.00767 µM"}, {"measurement": "pEC50", "setting": "Experiment GEM+ATRi_dose3", "value": "8.18 and 8.30 and 8.12"}, {"measurement": "Response", "setting": "[1]", "value": "86.95 and 90.22 and 92.73"}, {"measurement": "Response", "setting": "[2]", "value": "86.95 and 90.22"}, {"measurement": "Response", "setting": "[3]", "value": "75.87 and 84.36"}, {"measurement": "Response", "setting": "[4]", "value": "87.64 and 91.58 and 92.37"}, {"measurement": "Response", "setting": "[5]", "value": "86.97 and 90.31"}, {"measurement": "Response", "setting": "[6]", "value": "68.28 and 77.94"}, {"measurement": "Response", "setting": "[7]", "value": "87.69 and 92.23"}, {"measurement": "Response", "setting": "[8]", "value": "91.78 and 94.40 and 93.95"}, {"measurement": "Response", "setting": "[9]", "value": "85.95 and 90.04"}, {"measurement": "Response", "setting": "[10]", "value": "52.30 and 58.04"}, {"measurement": "Response", "setting": "[11]", "value": "89.38 and 90.87"}, {"measurement": "Response", "setting": "[12]", "value": "89.09 and 93.32 and 91.50"}, {"measurement": "Response", "setting": "[13]", "value": "81.41 and 84.65"}, {"measurement": "Response", "setting": "[14]", "value": "41.30 and 46.95"}, {"measurement": "Response", "setting": "Drug 10 nM alone, ATRi 0 nM (experiment 'GEM')", "value": "87.15 and 91.05"}, {"measurement": "Response", "setting": "Drug 30 nM + ATRi 3 nM (GEM+ATRi_dose1)", "value": "84.14 and 83.47 and 86.69"}, {"measurement": "Response", "setting": "Drug 30 nM + ATRi 10 nM (GEM+ATRi_dose2)", "value": "60.15 and 63.62"}, {"measurement": "Response", "setting": "Drug 30 nM + ATRi 30 nM (GEM+ATRi_dose3)", "value": "36.88 and 38.31"}, {"measurement": "Response", "setting": "Drug 30 nM alone, ATRi 0 nM (experiment 'GEM')", "value": "87.92 and 89.82"}, {"measurement": "Response", "setting": "Drug 100 nM + ATRi 3 nM (GEM+ATRi_dose1)", "value": "67.31 and 66.59 and 71.27"}, {"measurement": "Response", "setting": "Drug 100 nM + ATRi 10 nM (GEM+ATRi_dose2)", "value": "33.79 and 36.06"}, {"measurement": "Response", "setting": "Drug 100 nM + ATRi 30 nM (GEM+ATRi_dose3)", "value": "30.17 and 37.05"}, {"measurement": "Response", "setting": "Drug 100 nM alone, ATRi 0 nM (experiment 'GEM')", "value": "79.92 and 81.64"}, {"measurement": "Response", "setting": "Drug 300 nM + ATRi 3 nM (GEM+ATRi_dose1)", "value": "43.01 and 39.79 and 38.91"}, {"measurement": "Response", "setting": "Drug 300 nM + ATRi 10 nM (GEM+ATRi_dose2)", "value": "30.09 and 31.69"}, {"measurement": "Response", "setting": "Drug 300 nM + ATRi 30 nM (GEM+ATRi_dose3)", "value": "22.83 and 27.53"}, {"measurement": "Response", "setting": "Drug 300 nM alone, ATRi 0 nM (experiment 'GEM')", "value": "65.38 and 51.74"}, {"measurement": "Response", "setting": "Drug 1000 nM + ATRi 3 nM (GEM+ATRi_dose1)", "value": "27.32 and 30.30 and 27.51"}, {"measurement": "Response", "setting": "Drug 1000 nM + ATRi 10 nM (GEM+ATRi_dose2)", "value": "23.88 and 28.00"}, {"measurement": "Response", "setting": "Drug 1000 nM + ATRi 30 nM (GEM+ATRi_dose3)", "value": "20.74 and 24.11"}, {"measurement": "Response", "setting": "Drug 1000 nM alone, ATRi 0 nM (experiment 'GEM')", "value": "37.94 and 32.34"}, {"measurement": "Response", "setting": "Drug 3000 nM + ATRi 3 nM (GEM+ATRi_dose1)", "value": "22.35 and 31.11 and 24.18"}, {"measurement": "Response", "setting": "Drug 3000 nM + ATRi 10 nM (GEM+ATRi_dose2)", "value": "21.92 and 27.23 and 22.65"}, {"measurement": "Response", "setting": "Drug 3000 nM + ATRi 30 nM (GEM+ATRi_dose3)", "value": "19.23 and 26.92"}, {"measurement": "Response", "setting": "Drug 3000 nM alone, ATRi 0 nM (experiment 'GEM')", "value": "23.81 and 32.93"}, {"measurement": "Ratio", "setting": "[1]", "value": "1.02 and 1.00 and 1.03"}, {"measurement": "Ratio", "setting": "[2]", "value": "1.02 and 1.00"}, {"measurement": "Ratio", "setting": "[3]", "value": "0.89 and 0.93"}, {"measurement": "Ratio", "setting": "[4]", "value": "1.03 and 1.01 and 1.02"}, {"measurement": "Ratio", "setting": "[5]", "value": "1.02 and 1.00"}, {"measurement": "Ratio", "setting": "[6]", "value": "0.80 and 0.86"}, {"measurement": "Ratio", "setting": "[7]", "value": "1.03 and 1.02"}, {"measurement": "Ratio", "setting": "[8]", "value": "1.08 and 1.04"}, {"measurement": "Ratio", "setting": "[9]", "value": "1.01 and 1.00"}, {"measurement": "Ratio", "setting": "[10]", "value": "0.61 and 0.64"}, {"measurement": "Ratio", "setting": "[11]", "value": "1.05 and 1.00"}, {"measurement": "Ratio", "setting": "[12]", "value": "1.05 and 1.03 and 1.01"}, {"measurement": "Ratio", "setting": "[13]", "value": "0.96 and 0.94"}, {"measurement": "Ratio", "setting": "[14]", "value": "0.49 and 0.52"}]}
